Experiments:
[1] = tested on: MDA-MB-231 triple-negative breast cancer cells; assay: Proliferation of MDA-MB-231 triple-negative breast cancer cells in vitro; type: cell-based, human; settings: for Cell proliferation (% control) as a function of parthenolide analog dose (10 uM). / Cell proliferation (% control) as a function of parthenolide analog dose (50 uM).: MDA-MB-231 cells, data corresponds to FIG. 5; for Antitumor effects compared with dimethylamino-parthenolide (DMAPT): MDA-MB-231, doses 0-50 micromolar, most notable at 10 micromolar, FIG. 2
Procedure: FIG. 2: Parthenolides inhibit proliferation of MDAMB231 triple negative breast cancer cells. Parthenolide analogues JD211-JD216 were tested for antitumor activity using triple-negative breast cancer cells (MDA-MB-231) in vitro. Doses ranged from 0-50 micromolar and tumor cell proliferation was assessed using established methods. […] This was most notable at lower compound dose at 10 micromolar. These findings indicate that novel compounds such as JD213, JD214, JD215 and JD216 are more promising candidates for anticancer therapy then DMAPT because these cancers are more sensitive to compounds other than DMAPT.
Parthenolide analogues JD211-JD216 were tested for antitumor activity using triple-negative breast cancer cells (MDA-MB-231) in vitro. Doses ranged from 0-50 micromolar and tumor cell proliferation was assessed using established methods. […] This was most notable at lower compound dose at 10 micromolar. These findings indicate that novel compounds such as JD213, JD214, JD215 and JD216 are more promising candidates for anticancer therapy then DMAPT because these cancers are more sensitive to compounds other than DMAPT.

[2] = tested on: human umbicical vein endothelial cells (HUVEC); assay: Proliferation of human umbilical vein endothelial cells (HUVEC) in vitro; type: cell-based; settings: dosed at 100-nM or at doses up to 10-uM (not shown); FIG. 6

Compound	Cell proliferation (% control) as a function of parthenolide analog dose (10 uM). [1] [% control]	Cell proliferation (% control) as a function of parthenolide analog dose (50 uM). [1] [% control]	Antitumor effects compared with dimethylamino-parthenolide (DMAPT) [1]	Suppression of MDA-MB-231 cell proliferation ([1]; 100-nM dose (0.1-uM) in vitro, compared to control (P<0.001), FIG. 6)	Effect on proliferation of HUVEC [2]
C/C1=C\CC[C@@]2(C)O[C@H]2[C@H]2OC(=O)[C@@H](CNCC(=O)O)[C@@H]2CC1 [JD211, (((3R,3aS,1bS,E)-6,9a-dimethyl-2-oxo-2,3,3a,4,5,8,9,9a,10a,10b-decahydrooxire-no[2′,3′:9,10]cyclodeca[1,2-b]furan-3-yl)methyl)glycine]	106.0	105.8			
C/C1=C\CC[C@@]2(C)O[C@H]2[C@H]2OC(=O)[C@@H](CNC(C)(C)C(=O)OCc3ccccc3)[C@@H]2CC1 [JD212, Benzyl 2-((((3R,3aS,10bS,E)-6,9a-dimethyl-2-oxo-2,3,3a,4,5,8,9,9a,10a,10b-decahydrooxir-eno[2′,3′:9,10]cyclodeca[1,2-b]furan-3-yl)methyl)amino)-2-methylpropanoate]	103.4	100.8			
C/C1=C\CC[C@@]2(C)O[C@H]2[C@H]2OC(=O)[C@@H](CN(C)CC(=O)OCc3ccccc3)[C@@H]2CC1 [JD213, Benzyl N-(((3R,3aS,10bS,E)-6,9a-dimethyl-2-oxo-2,3,3a,4,5,8,9,9a,10a,10b-decahydrooxire-no[2′,3′:9,10]cyclodeca[1,2-b]furan-3-yl)methyl)-N-methylglycinate]	26.7	0.4	greater than that observed with dimethylamino-parthenolide (DMAPT)		
C/C1=C\CC[C@@]2(C)O[C@H]2[C@H]2OC(=O)[C@@H](CN(C)CC(=O)O)[C@@H]2CC1 [JD214, N-(((3R,3aS,10bS,E)-6,9a-Dimethyl-2-oxo-2,3,3a,4,5,8,9,9a,10a,10b-decahydrooxire-no[2′,3′:9,10]cyclodeca[1,2-b]furan-3-yl)methyl)-N-methylglycine]	40.0	16.6	greater than that observed with dimethylamino-parthenolide (DMAPT)		
C/C1=C\CC[C@@]2(C)O[C@H]2[C@H]2OC(=O)[C@@H](CNC(C)(C)C(=O)O)[C@@H]2CC1 [JD215, 2-((((3R,3aS,10bS,E)-6,9a-Dimethyl-2-oxo-2,3,3a,4,5,8,9,9a,10a,10b-decahydrooxire-no[2′,3′:9,10]cyclodeca[1,2-b]furan-3-yl)methyl)amino)-2-methylpropanoic acid]	59.5	0	greater than that observed with dimethylamino-parthenolide (DMAPT)		
C/C1=C\CC[C@@]2(C)O[C@H]2[C@H]2OC(=O)[C@@H](CNCC(=O)OCc3ccccc3)[C@@H]2CC1 [JD216, Benzyl (((3R,3aS,10bS,E)-6,9a-dimethyl-2-oxo-2,3,3a,4,5,8,9,9a,10a,10b-decahydrooxire-no[2′,3′:9,10]cyclodeca[1,2-b]furan-3-yl)methyl)glycinate]	0	0	greater than that observed with dimethylamino-parthenolide (DMAPT)	effectively suppress	does not significantly alter
